Source: patent publication US20260115202A1, “TOPICAL COMPOSITIONS COMPRISING AN ESTETROL COMPONENT AND USE OF SAID COMPOSITIONS FOR WOUND HEALING” (NEURALIS SA, priority 2022, published 2026)

How the values were obtained:
[1] = system: mouse bone marrow derived macrophages (BMDM); assay: M1-polarised murine bone marrow derived macrophages, qPCR of M1 markers; format: cell-based; details: for relative iNOS expression (M1 cell phenotype): formulations and E2/E4
Description: Bones were flushed with DMEM supplemented with 1% penicillin/streptomycin and 1% amphotericin B. Bone marrow cells were seeded into 12- or 6-well plates at 1×10^6 cells/ml in DMEM supplemented with 10% FBS and 10% L929-conditioned medium to induce differentiation. After 7-10 days, differentiated macrophages were treated with 10^−7M E2 or E4 in serum free growth medium for 16 hours and polarised to M1-type cells using 100 ng/ml IFN-γ and 1 μg/ml LPS. Following 6- or 24-hours polarisation cells were collected for RNA isolation or flow cytometry.
Following treatments, human and murine macrophages were collected in Trizol and RNA isolated using the Trizol plus RNA isolation kit (Invitrogen. Thermo Fisher) according to the manufacturer's instructions. RNA was reverse transcribed to cDNA using GoScript reverse transcriptase (Promega). Quantitative real-time PCR was carried out using 2×Takyon SYBR Green mastermix and a CFX Connect thermocycler. Primers for ERα and ERβ were used to explore changes in ER expression after treatment of MEK and MDF with E2 and E4. To investigate the effect of E2 and E4 on MEK differentiation and the expression of ECM proteins by MDF, primers for. Snail, keratin-1 and fibronectin, collagen I. MMP-2 and MMP-9 were used. Primers for INOS. IL-1B and Tnf-α or Ccl17 were used to assess M1/M2 polarisation status. Primers for GAPDH were used to normalise data. Relative gene expression was set to vehicle controls or M0 expression unless otherwise stated.
For follow up experiments murine bone marrow derived monocytes were isolated, differentiated (L929 media) and polarised to a pro-inflammatory M1 phenotype (IFN-γ and LPS: for 6 or 24 hours), and co-treated with either E2 or E4 at the optimal concentration identified in THP1 cells (10^−7: FIG. 24). […] Experiments were then undertaken with murine bone marrow derived monocytes differentiated to macrophages with 30 ng/ml MCSF, as opposed to L929 conditioned media.

[2] = system: Female wild-type (C57BL/6J) 8 weeks old mice; assay: In vivo LPS-induced delayed wound healing model: uterine weight and morphology; details: topical, 60 μl on days -1 to 4, LPS mice, assessed at day 5
Source text: (§1) The in vivo LPS-induced delayed wound healing model was reproduced as previously described (Crompton R, Williams H, Ansell D, Campbell L, Holden K, Cruickshank S, Hardman M J. Oestrogen promotes healing in a bacterial LPS model of delayed cutaneous wound repair. Lab Invest. 2016 April, 96 (4): 439-49).
(§2) Female wild-type (C57BL/6J) 8 weeks old mice were split into six groups (6 animals per experimental group): • Double placebo control (no LPS, placebo treatment), • LPS control (LPS, placebo treatment), • LPS with topical EstroGel (estradiol gel, contains 0.06% 17β-estradiol as hemihydrate in a hydro-alcoholic gel), • LPS with topical AG24 (E4 at 0.5%), • LPS with topical AG25 (E4 at 0.22%), • LPS with topical AG26 (E4 at 0.06%).
(§3) The day prior to wounding (day −1), all the animals were weighed and anaesthetised using oxygen and isoflurane (flow rate 1.25-2 L with 2-2.5% isoflurane depending on clinical signs). Animals were shaved and dorsal areas prepped. Wound positions (2 wounds) were marked on the dorsum of each animal. Animals received a first subcutaneous injection of 2 μg K. pneumoniae-derived LPS diluted in DPBS (1 μg per wound: Sigma Aldrich, UK: L4268) at the wound site, except the double placebo group that received DPBS only. A thin layer of EstroGel, AG24, AG25, AG26 or placebo were then applied to the dorsum of each animal, measured as 60 μl total (30 μl/wound). […]

[3] = system: wound expression of M1 (TNF-α and IL1-β) and M2 (Fizz1 and Ym1) markers; assay: In vivo LPS model: qPCR of M1 and M2 markers in wound tissue RNA; design: species or system mice; details: versus LPS/PBO control
[4] = system: LPS-induced delayed wound healing mice model; assay: In vivo LPS-induced delayed wound healing model: wound histology and immunohistochemistry; details: versus LPS/PBO
Source text: as §1, §2
as §3, with “μl/wound). Animals recovered in a warming cabinet and were then single housed in fresh cages containing alpha pad, RO water, food, mash and a house. On day 0 (24 hours after first anaesthesia), mice were re-anaesthetised and dorsal skin cleaned with chlorhexidine wipes. Two 6 mm dorsal excisions were created. 2 μg LPS (1 μg per wound) was subcutaneously injected at the wound site as above, except for the double placebo mice that were injected with DPBS.” for “μl/wound).”
These are expressed in the increase in uterus weight. Next, we evaluated wound closure from histological samples. […] The degree of re-epithelialisation was determined as the length of neo-epidermis divided by the distance between the wound margins, multiplied by 100.

[5] = L929 differentiated BMDM, M1 polarised 6 or 24 hours, 10^−7, versus vehicle
[6] = L929 differentiated BMDM, M1 polarised
[7] = MCSF differentiated BMDM, M1 polarised
[8] = MCSF differentiated BMDM, M1 polarised, 10^−7M, versus vehicle

SMILES | expression of M1 markers (iNOS, IL1-β, Tnf-α) [1, 5] | relative iNOS expression (M1 cell phenotype) [1, 6] | expression of M1 marker iNOS [1, 7] | expression of M1 markers (iNOS, IL1-β, Tnf-α) [1, 8] | uterine weight and morphology [2] | wound M1 marker expression (TNF-α, IL1-β) [3] | wound M2 marker expression (Fizz1, Ym1) [3] | wound re-epithelialisation ([4]; day 5, K14 immunohistochemistry) | wound macrophage numbers ([4]; day 5, immunohistochemistry) | wound neutrophil numbers ([4]; day 5, immunohistochemistry)
C[C@]12CC[C@@H]3c4ccc(O)cc4CC[C@H]3[C@@H]1CC[C@@H]2O [Formulation E2, 17β-estradiol, reference compound] | trend toward decreased expression of a range of M1 markers | significantly dampened the M1 cell phenotype | statistically significant reduction in the M1 marker INOS | strong trend towards reduced expression | – | – | – | – | – | –
C[C@]12CC[C@@H]3c4ccc(O)cc4CC[C@H]3[C@@H]1[C@@H](O)[C@@H](O)[C@@H]2O [Formulation E4, 1,3,5 (10)-estratrien-3,15alpha, 16alpha, 17beta-tetrol] | trend toward decreased expression of a range of M1 markers | significantly dampened the M1 cell phenotype | statistically significant reduction in the M1 marker INOS | strong trend towards reduced expression | affects uterine weight in a dose-dependent manner | reduced M1 marker expression | increased M2 marker expression | promotes re-epithelialization | reduced numbers of wound macrophages | reduced numbers of wound neutrophils
